Results from patent publication US10604489B2, “Compounds for the treatment of pain” (priority 2018, dated 2020).
Where a name gives a salt, the structure may show the parent alone.

Columns and labels:
[1] = target: human μ opioid receptor (Homo sapiens (Human), UniProt P35372); assay: Alternate functional activity ([35S]GTPγS binding) assay, SPA beads; assay type: biochemical; conditions: alternate assay: [35S]GTPγS 0.020 nM, CHO cell membranes with WGA PVT SPA beads
[2] = target: μ-receptor (Homo sapiens (Human), UniProt P35372); assay: Alternate receptor binding assay, competitive displacement of [3H]DAMGO; conditions: alternate assay: 0.8 nM [3H]DAMGO, 5 mM MgCl2, CHO cell membrane protein, 120 min
[3] = tested on: Male Sprague-Dawley rats; conditions: maximum pCO2 within 2 hours of administration, subcutaneous, rat
[4] = tested on: Male Sprague-Dawley rats; assay: animal or person; assay type: in vivo, rat; conditions: sc; minimum dose at which maximal reversal of hind paw weight bearing (50±0.5%) was achieved; subcutaneous administration; rat; read-out: MEMD SC CFA

| SMILES | EC50 [1] [nM] | Ki [2] [nM] | <60 mmHg @ 10X CFA MEMD ([3]; dose 10× CFA MEMD) | <60 mmHg @ 100X CFA MEMD ([3]; dose 100× CFA MEMD) | minimal effective dose [4] [mg/kg] |
| --- | --- | --- | --- | --- | --- |
| COC1(c2cccc(C(N)=O)c2)C2CCCC1CN(C1CN(c3ccccc3)C1)C2 [Compound 151, 3-((1R,5S,9r)-9-methoxy-3-(1-phenylazetidin-3-yl)-3-azabicyclo[3.3.1]nonan-9-yl)benzamide (S)-2-hydroxysuccinate] | < 10 | < 1 |  |  |  |
| COC1(c2cccc(C(N)=O)c2)C2CCCC1CN(C[C@H]1C[C@@H]3C[C@@H]3C1)C2 (stereo partly drawn) [Compound 152, 3-((1R,5s,9R)-3-((1R,3s,5S)-bicyclo[3.1.0]hexan-3-ylmethyl)-9-methoxy-3-azabicyclo[3.3.1]nonan-9-yl)benzamide hydrochloride] | < 10 | < 1 |  |  |  |
| COC1(c2cccc(C(N)=O)c2)C2CCCC1CN(CCCF)C2 [Compound 157, 3-((1R,5S,9r)-3-(3-fluoropropyl)-9-methoxy-3-azabicyclo[3.3.1]nonan-9-yl)benzamide hydrochloride] | 10 to 75 | < 1 |  |  |  |
| CCOC1(c2cccc(C(N)=O)c2)C2CCCC1CNC2.Cl [Compound 160, 3-((1R,5S,9r)-9-ethoxy-3-azabicyclo[3.3.1]nonan-9-yl)benzamide] | 10 to 75 | 1 to 5 | + (resulted in a maximum pCO2 value of less than 60 mmHg within 2 hours of administration) | + (resulted in a maximum pCO2 value of less than 60 mmHg within 2 hours of administration) | 0.1 |
| CCOC1(c2cccc(C(N)=O)c2F)C2CCCC1CNC2 (centres unmarked) [Compound 180] | > 75 | > 5 |  |  |  |
| NC(=O)c1cccc(C2(OCC(F)F)C3CCCC2CNC3)c1 (centres unmarked) [Compound 182] | 10 to 75 | > 5 |  |  |  |
| CCOC1(c2ccc(F)c(C(N)=O)c2)C2CCCC1CNC2 (centres unmarked) [Compound 183] | > 75 | > 5 |  |  |  |
| NC(=O)c1cccc(C2(OCCF)C3CCCC2CNC3)c1 (centres unmarked) [Compound 187] | 10 to 75 | > 5 |  |  |  |
| CCOC1(c2cc(C(N)=O)ccc2Cl)C2CCCC1CNC2 (centres unmarked) [Compound 188] | > 75 | > 5 |  |  |  |
| COC1(c2ccnc(C(N)=O)c2)C2CCCC1CN(C1CCC(F)(F)CC1)C2 (centres unmarked) [Compound 195] | > 75 | 1 to 5 |  |  |  |
| COC1(c2cccc(C(N)=O)c2)C2CCCC1CN(C1CCC(F)(F)CC1)C2 (centres unmarked) [Compound 196] | 10 to 75 | < 1 |  |  |  |
| COC1(c2ccnc(C(N)=O)c2)C2CCCC1CN([C@H]1C[C@@H]3[C@H](C1)C3(F)F)C2 (some centres unmarked) [Compound 197] | < 10 | < 1 |  |  |  |
| COC1(c2cccc(C(N)=O)c2)C2CCCC1CN(C1C[C@@H]3C[C@@H]3C1)C2 (some centres unmarked) [Compound 199] | < 10 | < 1 |  |  |  |
| COC1(c2cccc(C(N)=O)c2)C2CCCC1CN([C@H]1C[C@@H]3[C@H](C1)C3(F)F)C2 (some centres unmarked) [Compound 200] | < 10 | < 1 |  |  |  |
| COC1(c2ccnc(C(N)=O)c2)C2CCCC1CN(C1CC3CCC(C1)O3)C2 (centres unmarked) [Compound 202] | > 75 | > 5 |  |  |  |
| COC1(c2cccc(C(N)=O)c2)C2CCCC1CN(C1CC3CCC(C1)O3)C2 (centres unmarked) [Compound 203] | > 75 | 1 to 5 |  |  |  |
